These results are taken from patent publication US11896733B2, “Apparatuses, methods, and compositions for the treatment and prophylaxis of chronic wounds” (KCI Licensing, Inc., priority 2010, dated 2024).

One series concerns the target T1, MMP-9 (Homo sapiens, UniProt P14780).
T1 construct: purchased Biomol
Briefly: MMP-9 Colorimetric Drug Discovery Kit (Biomol): MMP-9 activity reduction by dressings. Type of series: biochemical. The following applies: compared to control samples with no MMP-9 inhibitor activity. From the text: A National Diagnostics Hydrogen Peroxide Assay Kit was used to evaluate the antioxidant properties of foam pads and the formulated coated foam pads containing alpha-lipoic acid. Foam pads coated only with gelatin were used as controls. FIG. 7 is a graph showing the percentage of hydrogen peroxide reduction due to reaction with alpha-lipoic acid. An MMP-9 Colorimetric Drug Discovery Kit (Biomol) was used to evaluate the MMP inhibiting/inactivating ability of the formulated foam pads containing alpha-lipoic acid/gelatin (ALA) and gelatin alone (GF GEL). The controls were uncoated foam pads and known potent MMP inactivating drug, NNGH (C13H20N2O5S, available from Enzo® Life Sciences). […] FIG. 9 is a graph showing the release of alpha-lipoic acid from the coating on the foam pads. The coating delivers approximately 70% of the total alpha-lipoic acid within the first day, while the remaining alpha-lipoic acid is released during the next 2-3 days.
Coated polyurethane foam (GranuFoam®) scaffolds described above in Examples 1-2 were further assayed for their ability to reduce MMP activity as compared to non-coated collagen based scaffold such as the Biostep™ and Promogran™ products.

Series [1] in a line: Release of alpha-lipoic acid from the coating on foam pads. Type of series: physicochemical. Conditions: gelatin coating on foam pads (FIG. 9). The text has this: Polyurethane open-cell reticulated foam pads were selected as the scaffold 140 and were immersed in a solution containing 1.5 wt % of alpha-lipoic acid and 4.5 wt % 225-bloom beef gelatin (and, where applicable, 0.3% EDTA). Gelatin was used as a biocompatible binding agent with good oxygen barrier and sustained release properties for alpha-lipoic acid as well as for its ability to act as a sacrificial substrate for surrounding gelatinases. Alpha-lipoic acid was pre-dissolved in ethanol and then mixed into the final solution. The foam pads were immersed for a sufficient amount of time to coat the pathways formed within the open-cell reticulated foam as described above with respect to the scaffold 140. After immersion, the foam pads were withdrawn, compressed to remove excess solution, and dried to a constant weight. In some cases, sodium benzoate was added to the formulation as a preservative. Dried foams comprised, by weight, 2% alpha-lipoic acid, 6% gelatin and, where applicable, 0.4% EDTA.
A National Diagnostics Hydrogen Peroxide Assay Kit was used to evaluate the antioxidant properties of foam pads and the formulated coated foam pads containing alpha-lipoic acid. Foam pads coated only with gelatin were used as controls. FIG. 7 is a graph showing the percentage of hydrogen peroxide reduction due to reaction with alpha-lipoic acid. […]

T1 sequence (P14780 107-444 limits assumed): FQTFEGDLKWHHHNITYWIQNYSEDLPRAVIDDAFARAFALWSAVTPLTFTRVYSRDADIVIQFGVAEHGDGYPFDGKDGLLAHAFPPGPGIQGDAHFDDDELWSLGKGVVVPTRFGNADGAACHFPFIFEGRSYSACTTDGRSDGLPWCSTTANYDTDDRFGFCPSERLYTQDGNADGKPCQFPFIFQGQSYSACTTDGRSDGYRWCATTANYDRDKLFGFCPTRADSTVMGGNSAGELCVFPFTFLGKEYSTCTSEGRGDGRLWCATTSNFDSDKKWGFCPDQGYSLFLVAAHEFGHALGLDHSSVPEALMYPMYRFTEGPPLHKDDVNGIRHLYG

Take `COc1ccc(S(=O)(=O)N(CC(=O)NO)CC(C)C)cc1` [NNGH]: the “% MMP-9 activity reduction” value was 90.2% at MMP-9 (Table 1 (first of two separate experiments)) and 103.8% on MMP-9 (Table 2 (second of two separate experiments)).

On to `O=C(O)CCCCC1CCSS1` (stereo not drawn) [alpha-lipoic acid], for which the “time over which the remaining alpha-lipoic acid is released” value in series [1] (after the first day) is 2 to 3 days. In addition, the “fraction of the total alpha-lipoic acid delivered by the coating” value in series [1] (within the first day) is “approximately 70%”.
